From patent US20180071296A1, “COMBINATION THERAPY COMPRISING AN INHIBITOR OF JAK, CDK, AND PIM” (Novartis AG, priority 2013, published 2018)

Assays:
Assay type in all cases: in vivo
[1] = test system: Ba/F3-EpoR-JAK2^V617F cells; assay: Total tumor load (bioluminescence, IVIS xenogen) in mouse MPN model; conditions: study endpoint; for reduction of total tumor load (level of bioluminescence) relative to the vehicle control: first experiment, FIG. 1, Compound A 60 mg/kg PO BID, Compound B 75 mg/kg PO QD, alone or combined, SCID/Beige mice
Source text: The combination of Compound A, Compound B and Compound C was examined in a mouse model of MPN. In this model, Ba/F3 cells harbored Epo Receptor and JAK2 V617F mutations. Ba/F3-EpoR-JAK2^V617F was engineered with a luciferase tag for experimental imaging. Female SCID/Beige mice were inoculated with 1x10e6 Ba/F3-EpoR-JAK2^V617F cells through the tail vein. Total tumor load was monitored with IVIS xenogen technology. It is defined as the sum of dorsal and ventral photon signal.
In the first experiment, disease-bearing mice were randomized into treatment cohorts, based on the disease burden. Mice were treated with vehicle, Compound B at 75 mg/kg, by oral gavage (PO) daily (QD), Compound A at 60 mg/kg, PO, twice daily (BID) and the combination of both agents.
In the second experiment, disease-bearing mice were randomized into treatment cohort, based on the disease burden. Mice were treated with vehicle, Compound A at 60 mg/kg, PO, twice daily (BID), and the triple combination of Compound A, Compound B (at 75 mg/kg, QD, PO) and Compound C (at 25 mg/kg, QD, PO).

[2] = test system: JAK2V617F allele burden; assay: JAK2V617F allele burden in PBMC (taqman) at study endpoint in mouse MPN model; conditions: second experiment, FIG. 6, Compound A 60 mg/kg PO BID alone or with Compound B 75 mg/kg QD PO and Compound C 25 mg/kg QD PO
Procedure: (§1) The combination of Compound A, Compound B and Compound C was examined in a mouse model of MPN. In this model, Ba/F3 cells harbored Epo Receptor and JAK2 V617F mutations. Ba/F3-EpoR-JAK2^V617F was engineered with a luciferase tag for experimental imaging. Female SCID/Beige mice were inoculated with 1x10e6 Ba/F3-EpoR-JAK2^V617F cells through the tail vein. […] Additionally, JAK2V617F allele burden, defined as the relative ratio of JAK2V617F over wild type JAK2, is measured by taqman in PBMCs at study endpoint.
(§2) In the first experiment, disease-bearing mice were randomized into treatment cohorts, based on the disease burden. Mice were treated with vehicle, Compound B at 75 mg/kg, by oral gavage (PO) daily (QD), Compound A at 60 mg/kg, PO, twice daily (BID) and the combination of both agents. At study endpoint, spleen weight from each of the study cohorts was obtained. Relative change in the spleen weight was calculated by normalizing individual spleen weight against the mean spleen weight of the cohort receiving vehicle treatment.
In the second experiment, disease-bearing mice were randomized into treatment cohort, based on the disease burden. […] Relative spleen weight was calculated by normalizing individual spleen weight against the mean spleen weight of the cohort receiving vehicle treatment.

[3] = test system: Ba/F3-EpoR-JAK2^V617F cells; assay: Spleen weight at study endpoint in mouse MPN model
Procedure: as §1, §2
In the second experiment, disease-bearing mice were randomized into treatment cohort, based on the disease burden. Mice were treated with vehicle, Compound A at 60 mg/kg, PO, twice daily (BID), and the triple combination of Compound A, Compound B (at 75 mg/kg, QD, PO) and Compound C (at 25 mg/kg, QD, PO). At study endpoint, spleen weight from each of the study cohorts was obtained. Relative spleen weight was calculated by normalizing individual spleen weight against the mean spleen weight of the cohort receiving vehicle treatment.

[4] = first experiment, FIG. 2, Compound A 60 mg/kg PO BID, Compound B 75 mg/kg PO QD, alone or combined

N#CC[C@H](C1CCCC1)n1cc(-c2ncnc3[nH]ccc23)cn1 [Compound A, (3R)-3-cyclopentyl-3-[4-(7H-pyrrolo[2,3-d]pyrimidin-4-yl)pyrazol-1-yl]propanenitrile]
reduction of total tumor load (level of bioluminescence) relative to the vehicle control [1]: ~79%
reduction of total tumor load (level of bioluminescence) ([1]; second experiment, FIG. 4, Compound A 60 mg/kg PO BID alone or with Compound B 75 mg/kg QD PO and Compound C 25 mg/kg QD PO): ~70%
down-modulation of JAK2V617F allele burden [2]: ~15%
reduction of spleen weight relative to that of the vehicle control [3, 4]: ~62%
reduction of spleen weight relative to that of the vehicle control ([3]; second experiment, FIG. 5, Compound A 60 mg/kg PO BID alone or with Compound B 75 mg/kg QD PO and Compound C 25 mg/kg QD PO): ~53%

CN(C)C(=O)c1cc2cnc(Nc3ccc(N4CCNCC4)cn3)nc2n1C1CCCC1 [Compound B, 7-Cyclopentyl-2-(5-piperazin-1-yl-pyridin-2-ylamino)-7H-pyrrolo[2,3-d]pyrimidine-6-carboxylic acid dimethylamide]
reduction of total tumor load (level of bioluminescence) relative to the vehicle control [1]: ~77%
reduction of spleen weight relative to that of the vehicle control [3, 4]: ~38%
